Measurements published in patent US20110191897A1, “Plants Tolerant to HPPD Inhibitor Herbicides” (Bayer CropScience AG, priority 2009, published 2011).
Several values for one entry are separate records, joined by “and”; a condition that tells them apart may be missing. Identical values can stand only once.

What was measured:
[1] = tested on: T0 tobacco plants expressing the FMP37 HPPD (FMP37t); test: Greenhouse response of T0 tobacco plants to tembotrione; type: in vivo, Nicotiana tabacum; conditions: 100 g AI/ha, two weeks after treatment
Description: As an example, rooted plants containing the T-DNA PromCaMV35S-OTP-HIS6—FMP37t-TerCaMV35S, will be transferred to the greenhouse under standard growth conditions. Following a period of acclimation of two weeks, the T0 plants will be treated with a mixture containing 100 g tembotrione/ha prepared from a WP20 (wettable powder 20%) formulation supplemented with ammonium sulfate and methyl ester raps oil. Two weeks after the treatment, the symptoms due to the application of the herbicides will be evaluated. The plants are classified in four categories. The treated plants evaluated as “0” are looking like the untreated tobacco plants. The plants evaluated as “1” display temporary light bleaching phenotype due to the application of the herbicides. The plants evaluated as “2” display permanent light to strong bleaching symptoms. Finally the plants evaluated as “3” are looking like wild type tobacco plants submitted to the same treatment.

[2] = tested on: rice shoots transformed with FMP37e; test: Bleaching of transformed rice shoots on MS/2 with tembotrione; type: in vivo; conditions: 2 weeks
Procedure: Rice transformation is achieved using methods well known in the art. Briefly, the Agrobacterium tumefaciens mediated transformation of rice was performed using immature embryos, from the restorer line 6G4317. Briefly, panicles from donor plants were harvested 8-12 days after pollination. The lemma of the immature seed was removed. Seeds were thereafter sterilized using a NaOCl based solution and Tween. The seeds were preinduced with acetylsalicylic acid. Agrobacterium tumefaciens cells were then co-cultivated with the preinduced seeds in presence of acetosyringone for 4 days at 24° C. in the dark. Thereafter, coleoptile from embryos were removed and washed, then put on a media supplemented with phosphinothricin for 3 weeks at 28° C. under a photoperiod rhythm of 16 hours. Then the growing calli were cut off from the embryos, and transferred to fresh media containing triacillin, phosphinothricin, L-proline and copper (II) sulfate.
For each callusline and per Tembotrione concentration, 3 shoots, and randomly isolated from different callus pieces, were transferred to MS/2 with Tembotrione. As a general rule, transfer of the shoots from regeneration medium to MS/2 occurred 9 weeks after calli had been put on regeneration medium.
Cultures were incubated at 26.5° C. (16 hrs. photoperiod) and evaluation of symptoms occurred 2 weeks later.
New developing leaves of the shoots transferred have been scored on the basis of bleaching and categorized in 3 groups:
a) no bleaching b) intermediate bleaching c) complete bleaching
Within the category ‘intermediate bleaching’ a distinction has been made between shoots having new leaves showing only very little bleaching symptoms and thus tending to green leaves, and shoots with new leaves almost completely bleached.

[3] = tested on: soybean events expressing the FMP37 HPPD protein; test: Soybean greenhouse treatment with tembotrione; type: in vivo; conditions: 100 g Al/ha, eight events
Procedure: Plants containing the transgene were then sprayed with HPPD inhibitor herbicides, as for example with tembotrione at a rate of 100 g Al/ha. Ten days after the application the symptoms due to the application of the herbicide were evaluated and compared to the symptoms observed on a wild type plants under the same conditions.
Eight events expressing the FMP37 HPPD protein have been generated from the green shoots of above and were transferred to the greenhouse. Four weeks after acclimation, i.e. plants at a developmental stage of 3-4 internodes were treated with 100 g Al/ha tembotrione prepared from a WP 20 formulation supplemented with ammonium sulfate and methyl ester raps oil. Ten days after application, the symptoms caused by the application of the HPPD inhibitor herbicide were evaluated and compared to the symptoms observed on treated non-transgenic wild-type soybean plants.

[4] = tested on: T1 tobacco plants with FMP37e coding for the HPPD FMP37; test: Glasshouse spray trial, herbicidal damage; type: in vivo, Nicotiana tabacum; conditions: line 113, individual plants, 100 gAl/ha, 7DAT
Procedure: (§1) T0 Tobacco plants containing either the gene from Arabidopsis coding for HPPD or the gene FMP37e from Blepharisma japonicum coding for FMP37 HPPD, mentioned above (Example 3), were transferred to the glasshouse (28/20° C.), to develop further and produce seeds. Those seeds were harvested and put on soil (ED73 mixed with sand and osmocote Pro) to germinate in the glasshouse (28/20° C.). Three to four weeks later, plantlets were transferred to single pots containing the soil mentioned above. Two weeks later, plants of a size 4-6 cm diameter were sprayed with either • tembotrione at 100 Al/ha prepared from a WP20 (wettable powder 20%) formulation supplemented with ammonium sulfate and methyl ester raps oil, or • isoxaflutole at 100 Al/ha prepared from a WP20 formulation supplemented with ammonium sulfate and methyl ester raps oil, or • bicyclopyrone at 100 gAl/ha prepared from a WP20 formulation supplemented with ammonium sulfate and methyl ester raps oil, or • “blind formulation” made from a WP20 formulation without active ingredient (Al) supplemented with ammonium sulfate and methyl ester raps oil, and were then transferred to a growth chamber with adequate light conditions (20000Lux).

[5] = tested on: T1 tobacco plants with Arabidopsis HPPD; test: Glasshouse spray trial, herbicidal damage; type: in vivo, Nicotiana tabacum; conditions: 100 gAl/ha, 7DAT
Procedure: as §1

[6] = biological target: T1, Arabidopsis thaliana HPPD (SEQ ID No. 10) (Arabidopsis thaliana, UniProt P93836); test: Spectrophotometric HPPD activity assay in presence of HPPD inhibitors; type: biochemical
T1 construct: made in house; host or cells: E. coli K-12 BL21 (pQE30-AtHPPD)
T1 sequence (P93836 with tags, fused parts or gaps): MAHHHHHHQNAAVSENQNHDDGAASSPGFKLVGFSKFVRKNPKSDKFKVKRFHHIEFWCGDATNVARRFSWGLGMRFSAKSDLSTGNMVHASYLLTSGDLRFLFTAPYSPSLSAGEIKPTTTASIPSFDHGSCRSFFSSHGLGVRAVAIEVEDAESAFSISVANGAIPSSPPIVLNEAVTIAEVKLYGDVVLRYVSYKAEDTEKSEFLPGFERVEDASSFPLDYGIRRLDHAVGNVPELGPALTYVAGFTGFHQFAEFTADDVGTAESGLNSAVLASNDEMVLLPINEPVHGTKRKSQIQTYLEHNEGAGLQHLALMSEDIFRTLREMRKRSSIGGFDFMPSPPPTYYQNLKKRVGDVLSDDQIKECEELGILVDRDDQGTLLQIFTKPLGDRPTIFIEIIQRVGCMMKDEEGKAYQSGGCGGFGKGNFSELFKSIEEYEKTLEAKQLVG

CS(=O)(=O)c1ccc(C(=O)C2C(=O)CCCC2=O)c(Cl)c1COCC(F)(F)F [Tembotrione, 2-[2-chloro-4-(methylsulfonyl)-3-[(2,2,2,-tri-fluoroethoxy)methyl]benzoyl]-1,3-cyclo-hexanedione]
number of plants in category 0 (looking like the untreated tobacco plants) [1]: 6 | number of plants in category 2 (permanent light to strong bleaching) [1]: 13 | number of plants in category 3 (like treated wild type tobacco plants) [1]: 7 | N° of shoots completely bleached ([2]; 1 μM): 17 | N° of shoots with intermediate bleaching ([2]; 1 μM): 24 | N° of shoots completely bleached ([2]; 5 μM): 43 | N° of shoots with intermediate bleaching ([2]; 5 μM): 17 | events with bleaching like non-transgenic wild-type soybean plant [3]: two events | events with local transitory bleaching symptoms, recovered completely 7 days after application [3]: One other event | events with transitory light bleaching symptoms, recovered 14 days after application [3]: One event | events without any bleaching phenotype ([3]; ten days after application): Four of the eight events | % injury [4]: 5% and 10% (2×) and 40% and 70% | % injury ([5]; line 252, individual plants): 40% | % injury ([5]; line 258, individual plants): 100% | % injury ([5]; line 327, individual plants): 40% and 50% | IC50 [6]: < 2510 nM | % Inhibition ([6]; 1.0E−05 M): 97% | % Inhibition ([6]; 2.5E−04 M): 97% | % Inhibition ([6]; 2.5E−05 M): 93% | % Inhibition ([6]; 2.5E−06 M): 82% | % Inhibition ([6]; 5.0E−06 M): 90% | inhibition at 5 µM ([6]; 5.0 × 10^−6M inhibitor (Table 4), read-out: percentage of inhibition): 92% | % Inhibition ([6]; 6.3E−05 M): 97%
